Laboratory results reported in PubChem BioAssay AID330 (DTP/NCI, 2004).
“And” between values parts separate entries of the source, which are not always exact repeats. Equal values may be shown once. Toxic doses and inconclusive results are not listed.

Test system: P388 leukemia ip, CD2F1 mice, survival T/C
Test: NCI In Vivo Anticancer Drug Screen. Data for tumor model P388 Leukemia (intraperitoneal) in CD2F1 (CDF1) mice
Settings: endpoint: median survival time, higher = longer survival
How it was run: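 Mice carrying the transplanted tumor received test compound or vehicle. Survival was recorded in each group, and the value is the treated-group measurement divided by that of the vehicle-treated control group.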

[1] = dose: 12.5 mg/kg/injection, schedule: Q01DX009 (ip), vehicle: Klucel (hydroxypropylcellulose) (HPC)
[2] = dose: 50.0 mg/kg/injection, schedule: Q01DX009 (ip), vehicle: Klucel (hydroxypropylcellulose) (HPC)
[3] = dose: 100.0 mg/kg/injection, schedule: Q01DX009 (ip), vehicle: Klucel (hydroxypropylcellulose) (HPC)
[4] = dose: 400.0 mg/kg/injection, schedule: Q01DX009 (ip), vehicle: Klucel (hydroxypropylcellulose) (HPC)
[5] = dose: 50.0 mg/kg/injection, schedule: Q01DX005 (ip), vehicle: saline with Tween-80
[6] = dose: 100.0 mg/kg/injection, schedule: Q01DX005 (ip), vehicle: saline with Tween-80
[7] = dose: 200.0 mg/kg/injection, schedule: Q01DX005 (ip), vehicle: saline with Tween-80
[8] = dose: 200.0 mg/kg/injection, schedule: Q01DX009 (ip), vehicle: Klucel (hydroxypropylcellulose) (HPC)
[9] = dose: 60.0 mg/kg/injection, schedule: Q01DX005 (ip), vehicle: saline with Tween-80
[10] = dose: 120.0 mg/kg/injection, schedule: Q01DX005 (ip), vehicle: saline with Tween-80
[11] = dose: 60.0 mg/kg/injection, schedule: Q01DX005 (ip), vehicle: Klucel (hydroxypropylcellulose) (HPC)
[12] = dose: 120.0 mg/kg/injection, schedule: Q01DX005 (ip), vehicle: Klucel (hydroxypropylcellulose) (HPC)
[13] = dose: 50.0 mg/kg/injection, schedule: Q01DX005 (ip), vehicle: Klucel (hydroxypropylcellulose) (HPC)
[14] = dose: 100.0 mg/kg/injection, schedule: Q01DX005 (ip), vehicle: Klucel (hydroxypropylcellulose) (HPC)
[15] = dose: 200.0 mg/kg/injection, schedule: Q01DX005 (ip), vehicle: Klucel (hydroxypropylcellulose) (HPC)
[16] = dose: 100.0 mg/kg/injection, schedule: Q04DX003 (ip), vehicle: Klucel (hydroxypropylcellulose) (HPC)
[17] = dose: 200.0 mg/kg/injection, schedule: Q04DX003 (ip), vehicle: Klucel (hydroxypropylcellulose) (HPC)

Compound: O=C1CCCC1C(=O)c1ccccc1.O=C1CCCC1C(=O)c1ccccc1.[Cu] (centres undefined)
- T/C [1]: 103 % of control
- T/C (dose: 25.0 mg/kg/injection, schedule: Q01DX009 (ip), vehicle: Klucel (hydroxypropylcellulose) (HPC)): 100 % of control
- T/C [2]: 100 % of control and 109 % of control
- T/C [3]: 116 % of control

Compound: COc1cc(C(=O)N=Nc2c(O)[nH]c3ccc(Br)cc23)cc(OC)c1OC
- T/C (dose: 3.13 mg/kg/injection, schedule: Q01DX009 (ip), vehicle: Klucel (hydroxypropylcellulose) (HPC)): 115 % of control
- T/C (dose: 6.25 mg/kg/injection, schedule: Q01DX009 (ip), vehicle: Klucel (hydroxypropylcellulose) (HPC)): 106 % of control
- T/C [1]: 105 % of control
- T/C [4]: 86 % of control

Compound: CC1=NS(C)(=O)=c2ccccc2=N1 (centres undefined)
- T/C (dose: 100.0 mg/kg/injection, schedule: Q04DX003 (ip), vehicle: saline with Tween-80): 105 % of control
- T/C (dose: 200.0 mg/kg/injection, schedule: Q04DX003 (ip), vehicle: saline with Tween-80): 105 % of control
- T/C (dose: 400.0 mg/kg/injection, schedule: Q04DX003 (ip), vehicle: saline with Tween-80): 106 % of control

Compound: Nc1nc2c(c(=O)[nH]1)N(C=O)C(CNc1ccc(C(=O)N[C@@H](CCC(=O)O)C(=O)O)cc1)CN2 (some centres undefined)
- T/C (dose: 125.0 mg/kg/injection, schedule: Q04DX003 (ip), vehicle: saline): 108 % of control
- T/C (dose: 250.0 mg/kg/injection, schedule: Q04DX003 (ip), vehicle: saline): 99 % of control
- T/C (dose: 500.0 mg/kg/injection, schedule: Q04DX003 (ip), vehicle: saline): 99 % of control

Compound: CC(C)CC(NC(=O)C(Cc1cnc[nH]1)N(C(=O)OCc1ccccc1)C(=O)OCc1ccccc1)C(=O)NN (centres undefined)
- T/C [5]: 101 % of control
- T/C [6]: 106 % of control
- T/C [7]: 106 % of control

Compound: CCOC(OCC)C(=O)NNS(=O)(=O)c1ccc(C)cc1
- T/C (dose: 12.5 mg/kg/injection, schedule: Q01DX009 (ip), vehicle: other): 105 % of control
- T/C (dose: 25.0 mg/kg/injection, schedule: Q01DX009 (ip), vehicle: other): 106 % of control
- T/C (dose: 50.0 mg/kg/injection, schedule: Q01DX009 (ip), vehicle: other): 100 % of control
- T/C (dose: 100.0 mg/kg/injection, schedule: Q01DX009 (ip), vehicle: other): 99 % of control
- T/C (dose: 200.0 mg/kg/injection, schedule: Q01DX009 (ip), vehicle: other): 90 % of control

Compound: O=[N+]([O-])c1ccc2c(c1)Cc1cc(N(CCCl)CCCl)ccc1-2
- T/C [2]: 94 % of control
- T/C [3]: 92 % of control
- T/C [8]: 94 % of control

Compound: O=C1C2C3CCC(C2C(=O)N1CO)C1C2C(=O)N(CO)C(=O)C2C31 (centres undefined)
- T/C (dose: 12.5 mg/kg/injection, schedule: Q01DX009 (ip), vehicle: saline with Tween-80): 105 % of control
- T/C (dose: 25.0 mg/kg/injection, schedule: Q01DX009 (ip), vehicle: saline with Tween-80): 102 % of control and 116 % of control
- T/C (dose: 50.0 mg/kg/injection, schedule: Q01DX009 (ip), vehicle: saline with Tween-80): 166 % of control
- T/C (dose: 100.0 mg/kg/injection, schedule: Q01DX009 (ip), vehicle: saline with Tween-80): 205 % of control and 208 % of control

Compound: CCOC(=O)C1=C(Nc2ccc(F)cc2)C(=O)N(CC)C1
- T/C [9]: 100 % of control
- T/C [10]: 102 % of control
- T/C (dose: 240.0 mg/kg/injection, schedule: Q01DX005 (ip), vehicle: saline with Tween-80): 93 % of control

Compound: CC1(C)N=C(N)N=C(N)N1c1cccc(Cl)c1Cl
- T/C (dose: 5.0 mg/kg/injection, schedule: Q01DX009 (ip), vehicle: saline with Tween-80): 100 % of control
- T/C (dose: 5.0 mg/kg/injection, schedule: Q04DX003 (ip), vehicle: saline): 95 % of control
- T/C (dose: 10.0 mg/kg/injection, schedule: Q01DX009 (ip), vehicle: saline with Tween-80): 108 % of control
- T/C (dose: 10.0 mg/kg/injection, schedule: Q04DX003 (ip), vehicle: saline): 95 % of control
- T/C (dose: 20.0 mg/kg/injection, schedule: Q01DX009 (ip), vehicle: saline with Tween-80): 121 % of control
- T/C (dose: 20.0 mg/kg/injection, schedule: Q04DX003 (ip), vehicle: saline): 116 % of control

Compound: Nc1ccc(S(=O)(=O)Nc2c(N)[nH]c(=S)[nH]c2=O)cc1
- T/C (dose: 15.0 mg/kg/injection, schedule: Q01DX005 (ip), vehicle: Klucel (hydroxypropylcellulose) (HPC)): 97 % of control
- T/C (dose: 15.0 mg/kg/injection, schedule: Q01DX005 (ip), vehicle: saline with Tween-80): 115 % of control
- T/C (dose: 30.0 mg/kg/injection, schedule: Q01DX005 (ip), vehicle: Klucel (hydroxypropylcellulose) (HPC)): 97 % of control
- T/C (dose: 30.0 mg/kg/injection, schedule: Q01DX005 (ip), vehicle: saline with Tween-80): 105 % of control
- T/C [11]: 92 % of control
- T/C [9]: 98 % of control
- T/C [12]: 100 % of control
- T/C [10]: 100 % of control

Compound: FC(F)(F)C1(C(F)(F)F)O[P+]2(OC(C(F)(F)F)(C(F)(F)F)c3ccccc32)c2ccccc21
- T/C [13]: 97 % of control
- T/C [14]: 105 % of control
- T/C [15]: 106 % of control

Compound: CC1C[P+](c2ccccc2)(c2ccccc2)Cc2ccccc21 (centres undefined)
- T/C (dose: 6.25 mg/kg/injection, schedule: Q01DX001 (ip), vehicle: saline): 101 % of control and 105 % of control and 108 % of control
- T/C (dose: 12.5 mg/kg/injection, schedule: Q01DX001 (ip), vehicle: saline): 101 % of control and 117 % of control

Compound: S=C(N/N=C\c1nc2ccccc2c2ccccc12)Nc1ccc(Br)cc1
- T/C (dose: 100.0 mg/kg/injection, schedule: Q04DX002 (ip), vehicle: Klucel (hydroxypropylcellulose) (HPC)): 93 % of control
- T/C (dose: 200.0 mg/kg/injection, schedule: Q04DX002 (ip), vehicle: Klucel (hydroxypropylcellulose) (HPC)): 93 % of control
- T/C (dose: 400.0 mg/kg/injection, schedule: Q04DX002 (ip), vehicle: Klucel (hydroxypropylcellulose) (HPC)): 96 % of control

Compound: COC(=O)C1CCC=CC1Sc1ccccc1 (centres undefined)
- T/C [2]: 105 % of control
- T/C [3]: 106 % of control
- T/C [8]: 112 % of control

Compound: C1CCc2[nH]nc(-c3n[nH]c4c3CCCCC4)c2CC1
- T/C [11]: 100 % of control
- T/C [12]: 94 % of control
- T/C (dose: 240.0 mg/kg/injection, schedule: Q01DX005 (ip), vehicle: Klucel (hydroxypropylcellulose) (HPC)): 96 % of control

Compound: [CH3][Bi]1[O]C(=O)c2ccccc2[S]1
- T/C (dose: 25.0 mg/kg/injection, schedule: Q01DX005 (ip), vehicle: Klucel (hydroxypropylcellulose) (HPC)): 99 % of control and 102 % of control and 97 % of control

Compound: CC(NC(=O)C(N)Cc1ccc(Cl)cc1)P(=O)(O)O (centres undefined)
- T/C (dose: 12.5 mg/kg/injection, schedule: Q04DX002 (ip), vehicle: saline with Tween-80): 100 % of control
- T/C (dose: 25.0 mg/kg/injection, schedule: Q04DX002 (ip), vehicle: saline with Tween-80): 94 % of control
- T/C (dose: 50.0 mg/kg/injection, schedule: Q04DX002 (ip), vehicle: saline with Tween-80): 103 % of control

Compound: CC(=O)N1C=CN(C(C)=O)C1c1c[nH]c2ccccc12
- T/C [13]: 98 % of control
- T/C [14]: 104 % of control
- T/C [15]: 99 % of control

Compound: CC1(C)Cc2oc(=O)n(-c3ccccc3)c(=O)c2C1
- T/C [2]: 100 % of control
- T/C [3]: 102 % of control
- T/C [8]: 100 % of control

Compound: NC(=S)c1cccc(/C=N/n2cnnc2)c1
- T/C [16]: 97 % of control
- T/C [17]: 93 % of control
- T/C (dose: 400.0 mg/kg/injection, schedule: Q04DX003 (ip), vehicle: Klucel (hydroxypropylcellulose) (HPC)): 90 % of control

Compound: c1ccc(-c2nc3ccccc3[nH]2)nc1
- T/C (dose: 25.0 mg/kg/injection, schedule: Q04DX003 (ip), vehicle: Klucel (hydroxypropylcellulose) (HPC)): 101 % of control
- T/C (dose: 50.0 mg/kg/injection, schedule: Q04DX003 (ip), vehicle: Klucel (hydroxypropylcellulose) (HPC)): 96 % of control
- T/C [3]: 115 % of control
- T/C [16]: 101 % of control
- T/C [8]: 99 % of control
- T/C [17]: 93 % of control
- T/C [4]: 101 % of control

Compound: O/N=C/c1ccc(Cl)cc1Cl
- T/C (dose: 25.0 mg/kg/injection, schedule: Q01DX005 (ip), vehicle: saline with Tween-80): 98 % of control
- T/C [5]: 107 % of control
- T/C [6]: 92 % of control
- T/C [7]: 96 % of control

Compound: COc1ccc(-c2cncnc2N)cc1OC
- T/C [2]: 95 % of control
- T/C [3]: 97 % of control
- T/C [8]: 89 % of control

Compound: O=C1CC(=O)N(CCc2ccncc2)C(=O)N1CCc1ccncc1
- T/C (dose: 50.0 mg/kg/injection, schedule: Q01DX005 (ip), vehicle: saline): 106 % of control
- T/C (dose: 100.0 mg/kg/injection, schedule: Q01DX005 (ip), vehicle: saline): 106 % of control
